In patent US12398154B2, “Azaquinazoline pan-KRas inhibitors” (Mirati Therapeutics, Inc., priority 2020, dated 2025):

Key:
[1] = molecular target: T1, KRas G13D (Homo sapiens, UniProt P01116, G13D); experiment: KRas binding assay (TR-FRET displacement);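 note: One-hour room temperature incubation before TR-FRET reading, IC50 from a four-parameter curve fit to percent-of-control data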
T1 construct: Biotinylated KRas (corresponding to amino acids 1-169, produced at Accelegan Inc.); biotin (biotinylated); purchased Accelegan Inc
Experimental: (§1) The ability of a compound to bind to KRas was measured using a TR-FRET displacement assay. […] After a 60-minute incubation at room temperature, the reaction was measured using a BMG LABTECH CLARIO star Plus via TR-FRET. […] The POC values were fit to a 4-parameter IC50 equation and the IC50 value reported.

[2] = molecular target: T2, KRas Q61H (Homo sapiens, UniProt P01116, Q61H); experiment: KRas binding assay (TR-FRET displacement);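 note: TR-FRET signal read after one hour at room temperature, IC50 derived by four-parameter fitting of percent-of-control values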
T2 construct: Biotinylated KRas (corresponding to amino acids 1-169, produced at Accelegan Inc.); biotin (biotinylated); purchased Accelegan Inc
Experimental: as §1

[3] = molecular target: KRas G12D (Homo sapiens, UniProt P01116, G12D); experiment: biochemical;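 note: TR-FRET displacement binding assay on KRas, read after a one-hour incubation at room temperature, IC50 fitted from percent-of-control values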
Experimental: as §1

[4] = molecular target: KRas G12V (Homo sapiens, UniProt P01116, G12V); experiment: biochemical;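 note: KRas binding measured by TR-FRET displacement at room temperature, IC50 fitted from percent of control values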
Experimental: as §1

[5] = molecular target: KRas G12R (Homo sapiens, UniProt P01116, G12R); experiment: biochemical;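 note: TR-FRET displacement assay of compound binding to KRas, read after one hour at room temperature, potency from a four-parameter fit of percent-of-control values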
Experimental: as §1

[6] = molecular target: KRas G12A (Homo sapiens, UniProt P01116, G12A); experiment: biochemical;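 note: binding to KRas measured by TR-FRET displacement after one hour at room temperature, IC50 from a four-parameter fit of percent-of-control values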
Experimental: as §1

[7] = molecular target: KRas G12S (Homo sapiens, UniProt P01116, G12S); experiment: biochemical;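 note: TR-FRET displacement binding to KRas, read after one hour incubation at room temperature, IC50 from four-parameter fit of percent of control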
Experimental: as §1

[8] = molecular target: KRas G12C (Homo sapiens, UniProt P01116, G12C); experiment: biochemical;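 note: binding to KRas assessed by TR-FRET displacement after one hour incubation at room temperature, potency fitted from percent-of-control values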
Experimental: as §1

[9] = molecular target: KRas WT (Homo sapiens, UniProt P01116); experiment: biochemical;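 note: binding to KRas read as TR-FRET displacement after a one-hour room-temperature incubation, IC50 derived from percent-of-control values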
Sequence of KRas WT (P01116 1-169 isoform P01116-2): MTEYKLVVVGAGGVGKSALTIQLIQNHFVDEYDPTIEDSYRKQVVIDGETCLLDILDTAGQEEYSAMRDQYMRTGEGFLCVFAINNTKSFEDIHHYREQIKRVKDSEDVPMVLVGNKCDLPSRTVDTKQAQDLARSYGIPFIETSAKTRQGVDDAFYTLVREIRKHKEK
Experimental: as §1

Sequence of KRas G12A (P01116 1-169 isoform P01116-2 G12A): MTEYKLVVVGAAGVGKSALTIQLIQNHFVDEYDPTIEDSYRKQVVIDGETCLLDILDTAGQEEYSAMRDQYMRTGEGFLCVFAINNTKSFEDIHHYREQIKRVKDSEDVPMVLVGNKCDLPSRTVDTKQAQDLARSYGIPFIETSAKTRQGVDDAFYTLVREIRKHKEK
Sequence of KRas G12D (P01116 1-169 isoform P01116-2 G12D): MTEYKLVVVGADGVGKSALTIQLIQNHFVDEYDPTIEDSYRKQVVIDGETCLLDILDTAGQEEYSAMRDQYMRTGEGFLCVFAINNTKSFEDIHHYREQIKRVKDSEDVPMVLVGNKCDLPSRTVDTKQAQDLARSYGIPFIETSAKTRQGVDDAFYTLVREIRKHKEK
Sequence of KRas G12C (P01116 1-169 isoform P01116-2 G12C): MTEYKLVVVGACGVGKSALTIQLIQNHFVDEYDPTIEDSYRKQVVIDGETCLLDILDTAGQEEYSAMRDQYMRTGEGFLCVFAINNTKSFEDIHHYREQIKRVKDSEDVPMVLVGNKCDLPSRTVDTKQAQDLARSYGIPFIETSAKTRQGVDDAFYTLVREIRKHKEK
Sequence of KRas G12R (P01116 1-169 isoform P01116-2 G12R): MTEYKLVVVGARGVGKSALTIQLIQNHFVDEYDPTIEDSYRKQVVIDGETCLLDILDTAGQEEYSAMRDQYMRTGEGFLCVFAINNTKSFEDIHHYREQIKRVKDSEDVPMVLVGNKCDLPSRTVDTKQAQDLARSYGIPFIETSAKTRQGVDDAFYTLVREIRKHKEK
Sequence of KRas G12S (P01116 1-169 isoform P01116-2 G12S): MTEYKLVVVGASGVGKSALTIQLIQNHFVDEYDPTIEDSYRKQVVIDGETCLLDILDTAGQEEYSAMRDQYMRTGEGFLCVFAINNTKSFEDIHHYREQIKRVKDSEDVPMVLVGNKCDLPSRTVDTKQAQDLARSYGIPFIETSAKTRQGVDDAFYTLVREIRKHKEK
Sequence of KRas G12V (P01116 1-169 isoform P01116-2 G12V): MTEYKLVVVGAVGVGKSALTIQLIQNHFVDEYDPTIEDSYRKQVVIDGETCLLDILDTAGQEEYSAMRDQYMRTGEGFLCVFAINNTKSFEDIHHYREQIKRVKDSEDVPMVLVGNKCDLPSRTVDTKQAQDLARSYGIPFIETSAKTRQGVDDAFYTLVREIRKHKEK
T2 sequence (P01116 1-169 isoform P01116-2 Q61H): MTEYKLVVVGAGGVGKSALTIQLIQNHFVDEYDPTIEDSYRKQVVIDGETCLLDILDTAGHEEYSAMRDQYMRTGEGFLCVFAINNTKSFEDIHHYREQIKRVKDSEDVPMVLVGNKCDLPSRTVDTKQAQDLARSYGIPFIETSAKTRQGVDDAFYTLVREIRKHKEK
T1 sequence (P01116 1-169 isoform P01116-2 G13D): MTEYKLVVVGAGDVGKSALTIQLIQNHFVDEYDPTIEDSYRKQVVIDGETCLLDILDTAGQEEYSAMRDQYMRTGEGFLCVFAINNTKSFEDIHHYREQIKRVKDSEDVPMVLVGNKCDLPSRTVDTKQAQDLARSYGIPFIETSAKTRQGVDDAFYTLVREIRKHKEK

Fc1c(-c2cccc3cccc(F)c23)ncc2c(N3CC(n4cncn4)C3)nc(OCC34CCCN3CCC4)nc12 [Example 253, 4-(3-(1H-1,2,4-triazol-1-yl)azetidin-1-yl)-8-fluoro-7-(8-fluoronaphthalen-1-yl)-2-((hexahydro-1H-pyrrolizin-7a-yl)methoxy)pyrido[4,3-d]pyrimidine]
IC50 [1]: 14100 nM
IC50 [2]: 7720 nM
IC50 [3]: 67.3 µM
IC50 [4]: 4.35 µM
IC50 [5]: 4.08 µM
IC50 [6]: 3.03 µM
IC50 [7]: 3.59 µM
IC50 [8]: 2.41 µM
IC50 [9]: 6 µM

O=S1(=O)CC(CNc2nc(OCC34CCCN3CCC4)nc3c(F)c(-c4cccc5cccc(F)c45)ncc23)C1 [Example 127, 3-(((8-fluoro-7-(8-fluoronaphthalen-1-yl)-2-((tetrahydro-1H-pyrrolizin-7a(5H)-yl)methoxy)pyrido[4,3-d]pyrimidin-4-yl)amino)methyl)thietane 1,1-dioxide]
IC50 [1]: 8700 nM
IC50 [2]: 11100 nM
IC50 [3]: 25.1 µM
IC50 [4]: 1.7 µM
IC50 [5]: 2.58 µM
IC50 [6]: 2.68 µM
IC50 [7]: 1.72 µM
IC50 [8]: 2.19 µM
IC50 [9]: 4.22 µM

O=C1NC(=O)C2(CCCN(c3nc(OCC45CCCN4CCC5)nc4c(F)c(-c5cccc6cccc(F)c56)ncc34)C2)N1 (stereo not drawn) [Example 158, 7-(8-fluoro-7-(8-fluoronaphthalen-1-yl)-2-((hexahydro-1H-pyrrolizin-7a-yl)methoxy)pyrido[4,3-d]pyrimidin-4-yl)-1,3,7-triazaspiro[4.5]decane-2,4-dione]
IC50 [1]: 83 nM
IC50 [2]: 102 nM
IC50 [3]: 0.152 µM
IC50 [4]: 0.078 µM
IC50 [5]: 0.081 µM
IC50 [6]: 0.085 µM
IC50 [7]: 0.069 µM
IC50 [8]: 0.041 µM
IC50 [9]: 0.103 µM

OCC1CCCCN(c2nc(OCC34CCCN3CCC4)nc3c(F)c(-c4cccc5cccc(F)c45)ncc23)C1 (stereo not drawn) [Example 130, (1-(8-fluoro-7-(8-fluoronaphthalen-1-yl)-2-((tetrahydro-1H-pyrrolizin-7a(5H)-yl)methoxy)pyrido[4,3-d]pyrimidin-4-yl)azepan-3-yl)methanol]
IC50 [1]: 25800 nM
IC50 [2]: 21900 nM
IC50 [3]: 8.36 µM
IC50 [4]: 10.8 µM
IC50 [5]: 18.3 µM
IC50 [6]: 10.5 µM
IC50 [7]: 14.2 µM
IC50 [8]: 9.08 µM
IC50 [9]: 11.4 µM

Fc1c(-c2cccc3cccc(Cl)c23)ncc2c(N3CC(n4ccnc4)C3)nc(OCC34CCCN3CCC4)nc12 [Example 101, 4-(3-(1H-imidazol-1-yl)azetidin-1-yl)-7-(8-chloronaphthalen-1-yl)-8-fluoro-2-((tetrahydro-1H-pyrrolizin-7a(5H)-yl)methoxy)pyrido[4,3-d]pyrimidine]
IC50 [1]: 4230 nM
IC50 [2]: 2580 nM
IC50 [3]: 15.3 µM
IC50 [4]: 0.966 µM
IC50 [5]: 0.615 µM
IC50 [6]: 0.994 µM
IC50 [7]: 1.34 µM
IC50 [8]: 0.679 µM
IC50 [9]: 3.03 µM

NS(=O)(=O)NC1CCCN(c2nc(OCC34CCCN3CCC4)nc3c(F)c(-c4cccc5cccc(F)c45)ncc23)C1 (stereo not drawn) [Example 240, 8-fluoro-7-(8-fluoronaphthalen-1-yl)-2-(1,2,3,5,6,7-hexahydropyrrolizin-8-ylmethoxy)-4-[3-(sulfamoylamino)piperidin-1-yl]pyrido[4,3-d]pyrimidine]
IC50 [1]: 350 nM
IC50 [2]: 498 nM
IC50 [3]: 1.14 µM
IC50 [4]: 1.55 µM
IC50 [5]: 0.777 µM
IC50 [6]: 0.586 µM
IC50 [7]: 0.492 µM
IC50 [8]: 0.597 µM
IC50 [9]: 0.478 µM

Fc1c(-c2cccc3cccc(F)c23)ncc2c(N3C[C@@H]4CC[C@@H](C4)C3)nc(OCC34CCCN3CCC4)nc12 [Example 18, 4-((1R,5S)-3-azabicyclo[3.2.1]octan-3-yl)-8-fluoro-7-(8-fluoronaphthalen-1-yl)-2-((hexahydro-1H-pyrrolizin-7a-yl)methoxy)pyrido[4,3-d]pyrimidine]
IC50 [1]: 9370 nM
IC50 [2]: 13200 nM
IC50 [3]: 24 µM
IC50 [4]: 4.45 µM
IC50 [5]: 6.78 µM
IC50 [6]: 7.54 µM
IC50 [7]: 4.98 µM
IC50 [8]: 8.79 µM
IC50 [9]: 6.81 µM

O=S1(=O)CC(Nc2nc(OCC34CCCN3CCC4)nc3c(F)c(-c4cccc5cccc(F)c45)ncc23)C1 [Example 95, 3-((8-fluoro-7-(8-fluoronaphthalen-1-yl)-2-((hexahydro-1H-pyrrolizin-7a-yl)methoxy)pyrido[4,3-d]pyrimidin-4-yl)amino)thietane1,1-dioxide]
IC50 [1]: 7180 nM
IC50 [2]: 10300 nM
IC50 [3]: 55 µM
IC50 [4]: 4.99 µM
IC50 [5]: 3.06 µM
IC50 [6]: 5 µM
IC50 [7]: 4.12 µM
IC50 [8]: 3.62 µM
IC50 [9]: 3.99 µM

Fc1c(-c2cccc3cccc(F)c23)ncc2c(NCCNc3cccnc3)nc(OCC34CCCN3CCC4)nc12 [Example 211, N1-(8-fluoro-7-(8-fluoronaphthalen-1-yl)-2-((tetrahydro-1H-pyrrolizin-7a(5H)-yl)methoxy)pyrido[4,3-d]pyrimidin-4-yl)-N2-(pyridin-3-yl)ethane-1,2-diamine]
IC50 [1]: 20200 nM
IC50 [2]: 29800 nM
IC50 [3]: ≥ 100 µM
IC50 [4]: 14.7 µM
IC50 [5]: 8.03 µM
IC50 [6]: 12.2 µM
IC50 [7]: 18.7 µM
IC50 [8]: 10.4 µM
IC50 [9]: 16.9 µM

NC(=O)CCNc1nc(OCC23CCCN2CCC3)nc2c(F)c(-c3cccc4cccc(F)c34)ncc12 [Example 225, 3-((8-fluoro-7-(8-fluoronaphthalen-1-yl)-2-((hexahydro-1H-pyrrolizin-7a-yl)methoxy)pyrido[4,3-d]pyrimidin-4-yl)amino)propanamide]
IC50 [1]: 23500 nM
IC50 [2]: 26100 nM
IC50 [3]: 21.7 µM
IC50 [4]: 6.24 µM
IC50 [5]: 9.39 µM
IC50 [6]: 14.9 µM
IC50 [7]: 9.9 µM
IC50 [8]: 8.12 µM
IC50 [9]: 16.6 µM

Oc1nc(CCCNc2nc(OCC34CCCN3CCC4)nc3c(F)c(-c4cccc5cccc(Cl)c45)ncc23)n[nH]1 [Example 103, 3-(3-((7-(8-chloronaphthalen-1-yl)-8-fluoro-2-((tetrahydro-1H-pyrrolizin-7a(5H)-yl)methoxy)pyrido[4,3-d]pyrimidin-4-yl)amino)propyl)-1H-1,2,4-triazol-5-ol]
IC50 [1]: 4210 nM
IC50 [2]: 4940 nM
IC50 [3]: 15.5 µM
IC50 [4]: 1.83 µM
IC50 [5]: 1.5 µM
IC50 [6]: 2.09 µM
IC50 [7]: 2.45 µM
IC50 [8]: 1.89 µM
IC50 [9]: 3.95 µM

CC1CC(O)CCN(c2nc(OCC34CCCN3CCC4)nc3c(F)c(-c4cccc5cccc(F)c45)ncc23)C1 (stereo not drawn) [Example 116, 1-(8-fluoro-7-(8-fluoronaphthalen-1-yl)-2-((tetrahydro-1H-pyrrolizin-7a(5H)-yl)methoxy)pyrido[4,3-d]pyrimidin-4-yl)-6-methylazepan-4-ol]
IC50 [1]: 2700 nM
IC50 [2]: 5200 nM
IC50 [3]: 3.31 µM
IC50 [4]: 4.09 µM
IC50 [5]: 6.27 µM
IC50 [6]: 2.74 µM
IC50 [7]: 3.59 µM
IC50 [8]: 4.41 µM
IC50 [9]: 3.45 µM

O[C@@H]1C[C@H](O)CN(c2nc(OCC34CCCN3CCC4)nc3c(F)c(-c4cccc5cccc(F)c45)ncc23)C1 [Example 89, (3S,5R)-1-(8-fluoro-7-(8-fluoronaphthalen-1-yl)-2-((hexahydro-l H-pyrrolizin-7a-yl)methoxy)pyrido[4,3-d]pyrimidin-4-yl)piperidine-3,5-diol]
IC50 [1]: 1810 nM
IC50 [2]: 3270 nM
IC50 [3]: 2.28 µM
IC50 [4]: 1.02 µM
IC50 [5]: 2.6 µM
IC50 [6]: 1.25 µM
IC50 [7]: 1.55 µM
IC50 [8]: 1.06 µM
IC50 [9]: 1.4 µM

O=C1NCC12CCCN(c1nc(OCC34CCCN3CCC4)nc3c(F)c(-c4cccc5cccc(F)c45)ncc13)C2 (stereo not drawn) [Example 98, 6-(8-fluoro-7-(8-fluoronaphthalen-1-yl)-2-((tetrahydro-1H-pyrrolizin-7a(5H)-yl)methoxy)pyrido[4,3-d]pyrimidin-4-yl)-2,6-diazaspiro[3.5]nonan-1-one]
IC50 [1]: 3210 nM
IC50 [2]: 4770 nM
IC50 [3]: 1.89 µM
IC50 [4]: 3.01 µM
IC50 [5]: 6.42 µM
IC50 [6]: 2.91 µM
IC50 [7]: 4.01 µM
IC50 [8]: 2.84 µM
IC50 [9]: 3.36 µM

O=c1ccc(CNc2nc(OCC34CCCN3CCC4)nc3c(F)c(-c4cccc5cccc(F)c45)ncc23)c[nH]1 [Example 96, 5-(((8-fluoro-7-(8-fluoronaphthalen-1-yl)-2-((hexahydro-1H-pyrrolizin-7a-yl)methoxy)pyrido[4,3-d]pyrimidin-4-yl)amino)methyl)pyridin-2 (1H)-one]
IC50 [1]: 10700 nM
IC50 [2]: 22100 nM
IC50 [3]: 62.9 µM
IC50 [4]: 1.94 µM
IC50 [5]: 3.19 µM
IC50 [6]: 2.5 µM
IC50 [7]: 3.23 µM
IC50 [8]: 1.95 µM
IC50 [9]: 5.71 µM

O=C1CC2(CCCN(c3nc(OCC45CCCN4CCC5)nc4c(F)c(-c5cccc6cccc(F)c56)ncc34)C2)N1 (stereo not drawn) [Example 97, 6-(8-fluoro-7-(8-fluoronaphthalen-1-yl)-2-((hexahydro-1H-pyrrolizin-7a-yl)methoxy)pyrido[4,3-d]pyrimidin-4-yl)-1,6-diazaspiro[3.5]nonan-2-one]
IC50 [1]: 297 nM
IC50 [2]: 412 nM
IC50 [3]: 0.175 µM
IC50 [4]: 0.189 µM
IC50 [5]: 0.348 µM
IC50 [6]: 0.227 µM
IC50 [7]: 0.272 µM
IC50 [8]: 0.192 µM
IC50 [9]: 0.333 µM
